Reference: patent US5459152A, “Platelet activating factor antagonists” (Abbott Laboratories, priority 1993, dated 1995)
pKi: −log10 of the molar value.

target: T1, PAF receptor (Oryctolagus cuniculus, UniProt G1TEI7); assay: PAF receptor binding assay ([3H]C18-PAF, rabbit platelet membranes); conditions: inhibition of specific binding of 0.6 nM [3H]C18-PAF to rabbit platelet membranes, 60 min, room temperature; Ki calculated from IC50 by Cheng and Prusoff; read-out: PAF Receptor Binding Activity K1
T1 construct: platelet membranes where prepared by centrifugation and washing; tissue Pel-Freez (Rogers, AR) (whole rabbit blood); host or cells: rabbit platelet membranes
Description: The ability of representative compounds of the present invention to inhibit PAF activity was determined in an in vitro test using the following method.
Citrated whole rabbit blood was obtained from Pel-Freez (Rogers, AR). Rabbit platelets where prepared by centrifugation and washing. The platelets where lysed by freeze-thawing and sonication; platelet membranes where prepared by centrifugation and washing. Final membrane preparations where stored frozen in 10 mM Tris/5 mM MgCl2 /2 mM EDTA (TME buffer, pH 7.0) with 0.25 M sucrose added for membrane stabilization.
The final volume of the assay was 100 μl. The assay was conducted in Millititre-GV™ (Millipore Corp.) filtration plates; incubation time was for 60 minutes at room temperature (22°-23° C.). "Specific binding" was operationally defined as the arithmetic difference between "total binding" of 0.6 nM [^3 H]C18 -PAF (in the absence of added PAF) and "nonspecific binding" (in the presence of 1 μM PAF). After the prescribed incubation, platelet membranes where filtered under vacuum and washed with 1 millilitre of "binding buffer". The filters was dried and removed. The bound radioactivity was quantitated with a Berthold TLC-Linear Analyzer model LB2842.
Experiments where repeated at least once.

T1 sequence (G1TEI7 1-342): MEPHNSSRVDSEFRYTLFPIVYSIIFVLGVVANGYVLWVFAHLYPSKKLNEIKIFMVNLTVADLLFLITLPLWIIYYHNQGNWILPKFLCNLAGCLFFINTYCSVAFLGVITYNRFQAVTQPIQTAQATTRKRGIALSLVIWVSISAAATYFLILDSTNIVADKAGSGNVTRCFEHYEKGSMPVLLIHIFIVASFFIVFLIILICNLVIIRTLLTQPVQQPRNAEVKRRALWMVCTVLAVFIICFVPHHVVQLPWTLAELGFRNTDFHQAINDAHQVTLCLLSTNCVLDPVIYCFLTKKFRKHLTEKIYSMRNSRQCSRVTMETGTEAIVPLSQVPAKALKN

First: 3(1-Carbamoylamino-pyridin-3-yl)-7-[1-N,N-dimethylcarbamoyl-6-(4-fluorophenyl)indol-3-ylcarbonyl]-1H,3H-pyrrolo[1,2-c]thiazole [Example 77]
Second: 3-(Pyridin-3-yl)-7-[1-N-sulfoethylcarbamoyl-6-(4-fluorophenyl)indol- 3-ylcarbonyl]-1H,3H-pyrrolo[1,2-c]thiazole [Example 100]
The pKi of the first is higher: 7.00 for the first, less than 6.52 for the second. The first binds more tightly here.

“3-[Pyridin-3-yl)-7-(6-pyrimid-2-ylindol-3-ylcarbonyl)-1H,3H-pyrrolo[1,2-c]thiazole [Example 74]” gave a pKi of 7.08.

same assay, conditions: read-out: PAF Receptor Binding Activity K1

First: CN(C)C(=O)n1cc(C(=O)c2ccn3c2CSC3c2cccnc2)c2ccccc21 (stereo not shown) [Example 2, 3-(Pyridin-3-yl)-7-(1-N,N-dimethylcarbamoylindol-3-yl)carbonyl-1H,3H-pyrrolo[1,2-c]thiazole]
Second: CC(C)(C)OC(=O)n1cc(C(=O)c2ccn3c2CSC3c2cccnc2)c2ccccc21 (stereo not shown) [Example 9, 3-(Pyridin-3-yl)-7-(1-tert-butyloxycarbonylindol-3-yl)carbonyl-1H,3H-pyrrolo[1,2-c]thiazole]
The pKi of the first is 1.26 log units lower: 5.70 for the first, 6.96 for the second. The second binds more tightly here.

First: O=C(c1ccn2c1CSC2c1cccnc1)c1c[nH]c2ccc(OCc3ccccc3)cc12 (stereo not shown) [Example 3, 3-(Pyridin-3-yl)-7-(5-phenylmethoxyindol-3-yl)carbonyl-1H,3H-pyrrolo[1,2-c]thiazole]
Second: O=C(c1ccn2c1CSC2c1cccnc1)c1c[nH]c2cc(OCc3ccccc3)ccc12 (stereo not shown) [Example 4, 3-(Pyridin-3-yl)-7-(6-phenylmethoxyindol-3-yl)carbonyl-1H,3H-pyrrolo[1,2-c]thiazole]
The pKi of the first is 0.45 log units lower: 6.74 for the first, 7.19 for the second. The second binds more tightly here.

First: O=C(c1ccn2c1CSC2c1cccnc1)c1c[nH]c2c(OCc3ccccc3)cccc12 (stereo not shown) [Example 5, 3(Pyridin-3-yl)-7-(7-phenylmethoxyindol-3-yl)carbonyl-1H,3H-pyrrolo[1,2-c]thiazole]
Second: Cn1cc(C(=O)c2ccn3c2CSC3c2cccnc2)c2ccc(OCc3ccccc3)cc21 (stereo not shown) [Example 21, 3-(Pyridin-3-yl)-7-(1-methyl-6-phenylmethoxyindol-3-ylcarbonyl)-1H,3H-pyrrolo[1,2-c]thiazole]
The pKi of the first is 0.77 log units lower: 7.05 for the first, 7.82 for the second. The second binds more tightly here.

Compared with `CN(C)C(=O)n1cc(C(=O)c2ccn3c2CSC3c2cccnc2)c2cc(OCc3ccccc3)ccc21` (stereo not shown) [Example 6, 3-(Pyridin-3-yl)-7-(N,N-dimethylcarbamoyl-5-phenylmethoxyindol-3-yl)carbonyl-1H,3H-pyrrolo[1,2-c]thiazole], `CN(C)C(=O)n1cc(C(=O)c2ccn3c2CSC3c2cccnc2)c2ccc(OCc3ccccc3)cc21` (stereo not shown) [Example 7, 3-(Pyridin-3-yl)-7-(1-N,N-dimethylcarbamoyl-6-phenylmethoxyindol-3-yl)carbonyl-1H,3H-pyrrolo[1,2-c]thiazole] is 0.85 log units higher in pKi: 6.92 for the first, 7.77 for the second.

`O=C(c1ccn2c1CSC2c1cccnc1)c1c[nH]c2cc(-c3ccccc3)ccc12` (stereo not shown) [Example 10, 3-(Pyridin-3-yl)-7-(6-phenylindol-3-yl)carbonyl-1H,3H-pyrrolo[1,2-c]thiazole] and `O=C(c1ccn2c1CSC2c1cccnc1)c1c[nH]c2cc(-c3ccc(F)cc3)ccc12` (stereo not shown) [Example 28, 3-(Pyridin-3-yl)-7-[6-(4-fluorophenyl)indol-3-ylcarbonyl]-1H,3H-pyrrolo[1,2-c]thiazole] are within 0.2 log units of each other in pKi: 7.02 for the first, 7.12 for the second.

Compared with `O=C(c1ccn2c1CSC2c1cccnc1)c1cn(C(=O)N2CCOCC2)c2ccccc12` (stereo not shown) [Example 11, 3-(Pyridin-3-yl)-7-[1-(morpholin-4-ylcarbonyl)indol-3-yl]carbonyl-1H,3H-pyrrolo[1,2-c]thiazole], `CNC(=O)n1cc(C(=O)c2ccn3c2CSC3c2cccnc2)c2ccc(-c3ccccc3)cc21` (stereo not shown) [Example 30, 3-(Pyridin-3-yl)-7-(1-N-methylcarbamoyl-6-phenylindol-3-ylcarbonyl)-1H,3H-pyrrolo[1,2-c]thiazole] is 0.22 log units higher in pKi: 6.65 for the first, 6.87 for the second.

First: CN(C)C(=O)n1cc(C(=O)c2ccn3c2CSC3c2cccnc2)c2ccc(-c3ccccc3)cc21 (stereo not shown) [Example 12, 3-(Pyridin-3-yl)-7-(1-N,N-dimethylcarbamoyl-6-phenylindol-3-yl)carbonyl-1H,3H-pyrrolo[1,2-c]thiazole]
Second: CN(C)C(=O)n1cc(C(=O)c2ccn3c2CSC3c2ccc[n+](C)c2)c2ccc(-c3ccccc3)cc21 (stereo not shown) [Example 33, 3-(1-methylpyridin-3-yl)-7-(1-N,N-dimethylcarbamoyl-6-phenylindol-3-ylcarbonyl)-1H,3H-pyrrolo[1,2-c]thiazole]
The pKi of the first is 2.09 log units higher: 7.64 for the first, 5.55 for the second.

`CC(C)(C)OC(=O)n1cc(C(=O)c2ccn3c2C[S+]([O-])C3c2cccnc2)c2ccccc21` (stereo not shown) [Example 13, 2-Oxide-3-(pyridin-3-yl)-7-(1-tert-butyloxycarbonylindol-3-ylcarbonyl)-1H,3H-pyrrolo[1,2-c]thiazole] and `O=C(c1ccn2c1C[S+]([O-])C2c1cccnc1)c1c[nH]c2ccccc12` (stereo not shown) [Example 14, 2-Oxide-3-(pyridin-3-yl)-7-(indol-3-ylcarbonyl)-1H,3H-pyrrolo[1,2-c]thiazole] are within 0.2 log units of each other in pKi: 5.66 for the first, 5.62 for the second.

Compared with `O=C(c1ccn2c1COC2c1cccnc1)c1c[nH]c2ccccc12` (stereo not shown) [Example 15, 3-(Pyridin-3-yl)-7-(indol-3-ylcarbonyl)-1H,3H-pyrrolo[1,2-c]oxazole], `CC1(C)SC(c2cccnc2)n2ccc(C(=O)c3c[nH]c4ccccc34)c21` (stereo not shown) [Example 17, 1,1-Dimethyl-3-(pyridin-3-yl)-7-(indol-3-ylcarbonyl)-1H,3H-pyrrolo[1,2-c]thiazole] is 0.67 log units higher in pKi: 5.25 for the first, 5.92 for the second.

First: CC(C)N(C(=O)n1cc(C(=O)c2ccn3c2CSC3c2cccnc2)c2ccc(OCc3ccccc3)cc21)C(C)C (stereo not shown) [Example 16, 3-(Pyridin-3-yl)-7-(1-N,N-diisopropylcarbamoyl-6-phenylmethoxyindol-3-ylcarbonyl)-1H,3H-pyrrolo[1,2-c]thiazole]
Second: COC(=O)n1cc(C(=O)c2ccn3c2CSC3c2cccnc2)c2ccc(OCc3ccccc3)cc21 (stereo not shown) [Example 18]
The pKi of the first is 0.39 log units lower: 7.07 for the first, 7.46 for the second.

Going from `CN(C)C(=O)n1cc(C(=O)c2ccn3c2C(C)(C)SC3c2cccnc2)c2ccccc21` (stereo not shown) [Example 19, 1,1-Dimethyl-3-(pyridin-3-yl)-7-(1-N,N-dimethylcarbamoyl-indol-3-ylcarbonyl)-1H,3H-pyrrolo[1,2-c]thiazole] to `CN(C)C(=O)n1cc(C(=O)c2ccn3c2C(C)(C)SC3c2cccnc2)c2ccc(-c3ccccc3)cc21` (stereo not shown) [Example 24, 1,1-Dimethyl-3-(pyridin-3-yl)-7-(1-N,N-dimethylcarbamoyl-6-phenylindol-3-ylcarbonyl)-1H,3H-pyrrolo[1,2-c]thiazole], the pKi rises from 7.00 to 7.29 (0.29 log units). The second binds more tightly here.

`CN(C(=O)n1cc(C(=O)c2ccn3c2CSC3c2cccnc2)c2ccc(OCc3ccccc3)cc21)c1ccccc1` (stereo not shown) [Example 20, 3-(Pyridin-3-yl)-7-(1-N-methyl-N-phenylcarbamoyl-6-phenylmethoxyindol-3-ylcarbonyl)-1H,3H-pyrrolo[1,2-c]thiazole] and `O=C(c1ccn2c1CSC2c1cccnc1)c1cn(C(=O)Oc2ccccc2)c2cc(OCc3ccccc3)ccc12` (stereo not shown) [Example 27, 3-[Pyridin-3-yl)-7-(1-carbophenoxy-6-phenylmethoxyindol-3-ylcarbonyl)-1H,3H-pyrrolo[1,2-c]thiazole] are within 0.2 log units of each other in pKi: 6.74 for the first, 6.70 for the second.

First: CNC(=O)n1cc(C(=O)c2ccn3c2CSC3c2cccnc2)c2ccc(OCc3ccccc3)cc21 (stereo not shown) [Example 22, 3-(Pyridin-3-yl)-7-(1-N-methylcarbamoyl-6-phenylmethoxyindol-3-ylcarbonyl)-1H,3H-pyrrolo[1,2-c]thiazole]
Second: CNC(=O)n1cc(C(=O)c2ccn3c2CSC3c2ccc[n+]([O-])c2)c2ccc(-c3ccccc3)cc21 (stereo not shown) [Example 35, 3-(1-Oxide-pyridin-3-yl)-7-(1-N-methylcarbamoyl-6-phenylindol-3-ylcarbonyl)-1H,3H-pyrrolo[1,2-c]thiazole]
The pKi of the first is 0.69 log units higher: 8.05 for the first, 7.36 for the second. The first binds more tightly here.

First: CN(C)C(=O)n1cc(C(=O)c2ccn3c2C[S+]([O-])C3c2cccnc2)c2ccc(-c3ccccc3)cc21 (stereo not shown) [Example 23, 2-Oxide-3-(pyridin-3-yl)-7-(1-N,N-dimethylcarbamoyl-6-phenyllindol-3-ylcarbonyl)-1H,3H-pyrrolo[1,2-c]thiazole]
Second: CN(C)C(=O)n1cc(C(=O)c2ccn3c2CSC3c2ccc[n+]([O-])c2)c2ccc(-c3ccccc3)cc21 (stereo not shown) [Example 34, 3-(1-Oxide-pyridin-3-yl)-7-(1-N,N-dimethylcarbamoyl-6-phenylindol-3-ylcarbonyl)-1H,3H-pyrrolo[1,2-c]thiazole]
The pKi of the first is 0.83 log units lower: 7.02 for the first, 7.85 for the second.

Going from `COc1ccc(-c2ccc3c(C(=O)c4ccn5c4C(C)(C)SC5c4cccnc4)c[nH]c3c2)cc1` (stereo not shown) [Example 25, 1,1-Dimethyl-3-(pyridin-3-yl)-7-[6-(4-methoxyphenyl)indol-3-ylcarbonyl]-1H,3H-pyrrolo[1,2-c]thiazole] to `CNC(=O)n1cc(C(=O)c2ccn3c2C(C)(C)SC3c2cccnc2)c2ccc(-c3ccc(OC)cc3)cc21` (stereo not shown) [Example 32, 1,1-Dimethyl-3-(pyridin-3-yl)-7-[1-N-methylcarbamoyl-6-(4-methoxyphenyl)indol-3-ylcarbonyl]-1H,3H-pyrrolo[1,2-c]thiazole], the pKi rises from 6.57 to 6.82 (0.25 log units). The second binds more tightly here.

Molecule `COc1ccc(-c2ccc3c(C(=O)c4ccn5c4C(C)(C)SC5c4cccnc4)cn(C(=O)N(C)C)c3c2)cc1` (stereo not shown) [Example 26, 1,1-Dimethyl-3-Dimethyl-3-(pyridin-3-yl)-7-[1-N,N-dimethylcarbamoyl-6-(4-methoxyphenyl)indol-3-ylcarbonyl]-1H,3H-pyrrolo[1,2-c]thiazole] has a pKi of 7.26.
